Assay [1] relates to MOLT-4 cells. As to the kind of experiment: MOLT-4 cell viability using MTT assay. The settings on record: Homo sapiens, MOLT-4, 48 h, 48 h exposure. The format is cell-based. The protocol: MTT colorimetric assay is based on the mitochondrial reduction of tetrazolium salt by living cells.
Cells were cultured at 37° C. in a humidified atmosphere containing 5% CO2. […] At the end of incubation time, 15 μL of MTT solution (5 mg/ml) were added per well and the cells were incubated for another 4 h. […] IC50s were calculated using standard four-parametric curve fitting.

Assay [2] has as its target His-His-(EK)-hsBCLXL(2-197)[N197C] (Homo sapiens (Human), UniProt Q07817, N197C). As to the kind of experiment: Fluorescence quenching assay. Format: binding. To be noted: 1 nM Cy5-labelled protein, 400 nM PUMA peptide, 2 hours at 23° C.; KI determined from IC50. The source says:
Fluorescence quenching assay measures the change in fluorescence intensity of C-terminally Cy5-labelled BCL-xL protein, His-His-(EK)-hsBCLXL(2-197)[N197C] (UniProtKB®
which is linked in C-terminal region to the amino acid X which corresponds to a cysteine labelled on the sulfur with Sulfo-Cyanine5 from Lumiprobe GmbH catalogue number 13380, upon binding of a C-terminally labelled peptide derived from PUMA (UniProtKB® primary accession number Q9BXH1) having an aminoacid sequence (SEQ ID:04): [[…]] which is linked in C-terminal region to the amino acid X′ where X′ is cysteine labelled on the sulfur with TQ5WS from AAT Bioquest catalogue number 2079.
The addition of a compound which binds competitively to the same site as the peptide will result in an increase in the fluorescence intensity of the protein due to displacement of the fluorescence quencher.
An 11-point serial dilution of each compound was prepared in DMSO, the final buffer conditions were 10 mM 4-(2-hydroxyethyl)-1-piperazineethanesulfonic acid [HEPES], 150 mM NaCl, 0.05% Tween 20, pH 7.4 and 5% DMSO. The final protein concentration in the assay was 1 nM with the peptide present at 400 nM. The experiments were incubated for 2 hours at 23° C. before fluorescence intensity was measured on a Biotek SynergyNeo plate reader (Excitation 620 nm, emission 680 nm). […] The K1 values were determined from the IC50 values according to Cer et al, Nucleic Acids Res, 2009, Jul. 1; 37 (WebServer issue): W441-W445.

As a reminder, the IC50 is the concentration needed to halve the response being measured. Higher therefore signals lower potency. By Ki is commonly meant the dissociation constant of the complex between target and ligand, obtained from inhibition or displacement.

Sequence of His-His-(EK)-hsBCLXL(2-197)[N197C] (Q07817 2-197 N197C): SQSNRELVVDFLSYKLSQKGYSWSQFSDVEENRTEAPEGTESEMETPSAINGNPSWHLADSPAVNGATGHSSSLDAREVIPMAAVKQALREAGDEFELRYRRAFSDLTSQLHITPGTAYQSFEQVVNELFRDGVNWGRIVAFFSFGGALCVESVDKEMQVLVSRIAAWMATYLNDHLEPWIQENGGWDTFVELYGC

`CNCC#Cc1ccc(OCCCc2sc(N3CCCc4c3nnc(Nc3nc5ccccc5s3)c4C)nc2C(=O)O)cc1` [Example 80, 2-[3-(1,3-Benzothiazol-2-ylamino)-4-methyl-6,7-dihydro-5H-pyrido[2,3-c]pyridazin-8-yl]-5-[3-[4-[3-(methylamino)prop-1-ynyl]phenoxy]propyl]thiazole-4-carboxylic acid] had a half-maximal inhibitory concentration (IC50) in assay [1] of 0.575 nM. For the same compound, in assay [2], the Ki worked out at 0.0065 nM.
Taken in the same sequence, the figures for `Cc1c(Nc2nc3ccccc3s2)nnc2c1CCCN2c1ccc(-c2cnn(CC34CC5(C)CC(C)(C3)CC(OCCNCCCCO)(C5)C4)c2C)c(C(=O)O)n1` [Example 132, 6-[3-(1,3-benzothiazol-2-ylamino)-4-methyl-6,7-dihydro-5H-pyrido[2,3-c]pyridazin-8-yl]-3-[1-[[3-[2-(4-hydroxybutylamino)ethoxy]-5,7-dimethyl-1-adamantyl]methyl]-5-methyl-pyrazol-4-yl]pyridine-2-carboxylic acid] were 1.32 nM and 0.002 nM.
With `Cc1c(Nc2nc3ccccc3s2)nnc2c1CCCN2c1nc(C(=O)O)c(CCCOc2ccc(C#CC3(N(C)C)CCCCC3)cc2F)s1` [Example 84, 2-[3-(1,3-Benzothiazol-2-ylamino)-4-methyl-6,7-dihydro-5H-pyrido[2,3-c]pyridazin-8-yl]-5-[3-[4-[2-[1-(dimethylamino)cyclohexyl]ethynyl]-2-fluoro-phenoxy]propyl]thiazole-4-carboxylic acid], the IC50 in assay [1] turned out to be 1.83 nM. In assay [2], the Ki came to 0.053 nM.
In the same order, the values of `Cc1ccc2sc(Nc3nnc4c(c3C)CCCN4c3ccc(-c4cnn(CC56CC7(C)CC(C)(C5)CC(OCCN5CCCC5)(C7)C6)c4C)c(C(=O)O)n3)nc2c1` [Example 179, 3-[1-[[3,5-dimethyl-7-(2-pyrrolidin-1-ylethoxy)-1-adamantyl]methyl]-5-methyl-pyrazol-4-yl]-6-[4-methyl-3-[(5-methyl-1,3-benzothiazol-2-yl)amino]-6,7-dihydro-5H-pyrido[2,3-c]pyridazin-8-yl]pyridine-2-carboxylic acid] are 0.0916 nM and 0.0029 nM.
In the same order, the values of `CC(=O)N(C)CC#Cc1ccc(OCCCc2sc(N3CCCc4c3nnc(Nc3nc5ccccc5s3)c4C)nc2C(=O)O)c(F)c1` [Example 139, 5-[3-[4-[3-[acetyl(methyl)amino]prop-1-ynyl]-2-fluoro-phenoxy]propyl]-2-[3-(1,3-benzothiazol-2-ylamino)-4-methyl-6,7-dihydro-5H-pyrido[2,3-c]pyridazin-8-yl]thiazole-4-carboxylic acid] are 0.995 nM and 0.02 nM.
In the same order, the values of `Cc1c(Nc2nc3ccccc3s2)nnc2c1CCCN2c1ccc(-c2cnn(CC34CC5(C)CC(C)(CC(CCCN6CCCC6)(C5)C3)C4)c2C)c(C(=O)O)n1` [Example 166, 6-[3-(1,3-benzothiazol-2-ylamino)-4-methyl-6,7-dihydro-5H-pyrido[2,3-c]pyridazin-8-yl]-3-[1-[[3,5-dimethyl-7-(3-pyrrolidin-1-ylpropyl)-1-adamantyl]methyl]-5-methyl-pyrazol-4-yl]pyridine-2-carboxylic acid] are 0.429 nM and 0.0027 nM.
As for `Cc1c(Nc2nc3ccccc3s2)nnc2c1CCCN2c1ccc(-c2cnn(CC34CC5(C)CC(C)(C3)CC(OCCN(CCCCO)CCCCO)(C5)C4)c2C)c(C(=O)O)n1` [Example 140, 6-[3-(1,3-benzothiazol-2-ylamino)-4-methyl-6,7-dihydro-5H-pyrido[2,3-c]pyridazin-8-yl]-3-[1-[[3-[2-[bis(4-hydroxybutyl)amino]ethoxy]-5,7-dimethyl-1-adamantyl]methyl]-5-methyl-pyrazol-4-yl]pyridine-2-carboxylic acid], the IC50 in assay [1] is 2.85 nM. Further, in assay [2], the Ki is 0.0032 nM.
In the same order, the values of `CNCCCCc1ccc(OCCCc2sc(N3CCCc4c3nnc(Nc3nc5ccccc5s3)c4C)nc2C(=O)O)c(F)c1` [Example 75, 2-{3-[(1,3-Benzothiazol-2-yl)amino]-4-methyl-5H,6H,7H,8H-pyrido[2,3-c]pyridazin-8-yl}-5-(3-{2-fluoro-4-[4-(methylamino)butyl]phenoxy}propyl)-1,3-thiazole-4-carboxylic acid] are 9.78 nM and 0.0033 nM.
In the case of `CCN(CC)CC#Cc1ccc(OCCCc2sc(N3CCCc4c3nnc(Nc3nc5ccccc5s3)c4C)nc2C(=O)O)c(F)c1` [Example 85, 2-[3-(1,3-Benzothiazol-2-ylamino)-4-methyl-6,7-dihydro-5H-pyrido[2,3-c]pyridazin-8-yl]-5-[3-[4-[3-(diethylamino)prop-1-ynyl]-2-fluoro-phenoxy]propyl]thiazole-4-carboxylic acid], half-maximal inhibition in assay [1] (IC50) was put at 0.416 nM. Also, in assay [2], the inhibition constant (Ki) was found to be 0.044 nM.
`COC(=O)c1nc(N2CCCc3c2nnc(Nc2nc4ccccc4s2)c3C)sc1CCCOc1ccc(C#CCN)cc1F` [Example 126, methyl 5-[3-[4-(3-aminoprop-1-ynyl)-2-fluoro-phenoxy]propyl]-2-[3-(1,3-benzothiazol-2-ylamino)-4-methyl-6,7-dihydro-5H-pyrido[2,3-c]pyridazin-8-yl]thiazole-4-carboxylate]: the IC50 in assay [1] was determined as 53.3 nM. In addition, the Ki in assay [2] amounted to 0.067 nM.
In the same order, the values of `Cc1c(Nc2nc3ccccc3s2)nnc2c1CCCN2c1ccc(-c2cnn(CC34CC5(C)CC(C)(C3)CC(OCCN3CCCC3)(C5)C4)c2C)c(C(=O)O)n1` [Example 127, 6-[3-(1,3-benzothiazol-2-ylamino)-4-methyl-6,7-dihydro-5H-pyrido[2,3-c]pyridazin-8-yl]-3-[1-[[3,5-dimethyl-7-(2-pyrrolidin-1-ylethoxy)-1-adamantyl]methyl]-5-methyl-pyrazol-4-yl]pyridine-2-carboxylic acid] are 0.137 nM and 0.0021 nM.
The compound `Cc1c(Nc2nc3ccccc3s2)nnc2c1CCCN2c1nc(C(=O)O)c(CCCOc2ccc(CCCN3CCCC3)cc2F)s1` [Example 69, 2-[3-(1,3-Benzothiazol-2-ylamino)-4-methyl-6,7-dihydro-5H-pyrido[2,3-c]pyridazin-8-yl]-5-[3-[2-fluoro-4-(3-pyrrolidin-1-ylpropyl)phenoxy]propyl]thiazole-4-carboxylic acid] had an IC50 in assay [1] of 4.11 nM. The inhibition constant Ki in assay [2] stood at 0.0037 nM.
In assay [1], `Cc1c(Nc2nc3ccccc3s2)nnc2c1CCCN2c1nc(C(=O)O)c(CCCOc2ccc(C#CCN(CC[C@H](O)CO)CC[C@H](O)CO)cc2F)s1` [Example 125, 2-{3-[(1,3-benzothiazol-2-yl)amino]-4-methyl-6,7-dihydro-5H-pyrido[2,3-c]pyridazin-8-yl}-5-{3-[4-(3-{bis[(3S)-3,4-dihydroxybutyl]amino}prop-1-yn-1-yl)-2-fluorophenoxy]propyl}-1,3-thiazole-4-carboxylic acid] returned an IC50 of 9.53 nM. Further, the Ki in assay [2] was determined as 0.0067 nM.
The compound `Cc1c(Nc2nc3ccccc3s2)nnc2c1CCCN2c1nc(C(=O)O)c(CCCOc2ccc(C#CCNCCN(C)C)cc2F)s1` [Example 76, 2-[3-(1,3-Benzothiazol-2-ylamino)-4-methyl-6,7-dihydro-5H-pyrido[2,3-c]pyridazin-8-yl]-5-[3-[4-[3-[2-(dimethylamino)ethylamino]prop-1-ynyl]-2-fluoro-phenoxy]propyl]thiazole-4-carboxylic acid] had an IC50 in assay [1] of 0.74 nM. In addition, the inhibition constant Ki in assay [2] came out at 0.0018 nM.
In the same order, the values of `Cc1c(Nc2nc3ccccc3s2)nnc2c1CCCN2c1nc(C(=O)O)c(CCCOc2ccc(CCCN3C[C@@H]4[C@H](C3)C4(F)F)cc2F)s1` [Example 72, 2-[3-(1,3-Benzothiazol-2-ylamino)-4-methyl-6,7-dihydro-5H-pyrido[2,3-c]pyridazin-8-yl]-5-[3-[4-[3-[(1R,5S)-6,6-difluoro-3-azabicyclo[3.1.0]hexan-3-yl]propyl]-2-fluoro-phenoxy]propyl]thiazole-4-carboxylic acid] are 13.9 nM and 0.08 nM.
In assay [1], `Cc1c(Nc2nc3ccccc3s2)nnc2c1CCCN2c1nc(C(=O)O)c(CCCOc2cc(C#CCN(C)C)ccc2F)s1` [Example 78, 2-[3-(1,3-Benzothiazol-2-ylamino)-4-methyl-6,7-dihydro-5H-pyrido[2,3-c]pyridazin-8-yl]-5-[3-[5-[3-(dimethylamino)prop-1-ynyl]-2-fluoro-phenoxy]propyl]thiazole-4-carboxylic acid] yielded an IC50 of 2.46 nM. In addition, in assay [2], the Ki is 0.023 nM.
In turn, `Cc1c(Nc2nc3ccccc3s2)nnc2c1CCCN2c1ccc(-c2cnn(CC34CC5(C)CC(C)(CC(CCCN6CCN(C)CC6)(C5)C3)C4)c2C)c(C(=O)O)n1` [Example 168, 6-[3-(1,3-benzothiazol-2-ylamino)-4-methyl-6,7-dihydro-5H-pyrido[2,3-c]pyridazin-8-yl]-3-[1-[[3,5-dimethyl-7-[3-(4-methylpiperazin-1-yl)propyl]-1-adamantyl]methyl]-5-methyl-pyrazol-4-yl]pyridine-2-carboxylic acid] had an IC50 in assay [1] of 0.291 nM. In addition, the Ki in assay [2] is 0.0029 nM.
